Structures are written as SMILES. Structures can show the parent of a compound that is named as a salt. A value given as a limit tells only on which side of the number the result lay.

T1 sequence (Q13557 1-478 isoform Q13557-12): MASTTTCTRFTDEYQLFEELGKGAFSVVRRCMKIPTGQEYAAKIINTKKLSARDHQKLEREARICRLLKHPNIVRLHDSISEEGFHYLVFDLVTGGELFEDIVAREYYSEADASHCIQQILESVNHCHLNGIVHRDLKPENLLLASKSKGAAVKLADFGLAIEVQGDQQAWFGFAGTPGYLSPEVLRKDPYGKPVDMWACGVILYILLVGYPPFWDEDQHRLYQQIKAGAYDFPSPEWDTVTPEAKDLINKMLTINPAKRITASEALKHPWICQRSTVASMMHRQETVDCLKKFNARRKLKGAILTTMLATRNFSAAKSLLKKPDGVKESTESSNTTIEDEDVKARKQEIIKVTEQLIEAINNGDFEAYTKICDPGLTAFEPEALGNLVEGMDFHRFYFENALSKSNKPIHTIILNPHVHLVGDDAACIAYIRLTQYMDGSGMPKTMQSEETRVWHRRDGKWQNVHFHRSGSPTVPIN

The first assay addresses T1, Full-length, GST-tagged, human CaMKIIδ (Homo sapiens, UniProt Q13557).
T1 construct: Full-Length, Glutathione-S-Transferase(GST)-Tagged, Human CaMKIIδ was purchased from Carna Biosciences; purchased Carna Biosciences 02-111
Briefly: CaMKIIδ binding assay (TR-FRET with BODIPY-labeled probe ligand). The note with it: CaMKIIδ binding assay, results of Table 2. In short, it runs like this:
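Compounds were tested as 4-fold, eight-point series for 1 hr at room temperature, and IC50 was obtained by logistic fitting against a 3 μM parent-compound control. Signal came from displacement of a 300 nM BODIPY ligand from 0.5 nM GST-CaMKIIδ, detected via Tb-anti-GST in calmodulin/Ca2+ (pH 7.6).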
The IC50 is the concentration at which inhibition is half-maximal. The low end stands for greater potency, the high end for weaker potency. For the compound `COc1ccc(CN2CCS(=O)(=O)CC2)cc1Nc1ncc(-c2ccc(Cl)c(O[C@@H](C)Cn3cnnn3)c2)cn1` [Example 449, (S)-4-(3-((5-(3-((1-(1H-tetrazol-1-yl)propan-2-yl)oxy)-4-chlorophenyl)pyrimidin-2-yl)amino)-4-methoxybenzyl)thiomorpholine 1,1-dioxide], the IC50 lay in the range of 10 to 100 nM.
Still for that read-out and setting: with `Cc1cnc(N2CCC(N3CCOCC3)CC2)cc1Nc1ncc(-c2ccc(Cl)c(O[C@@H](C)Cn3cnnn3)c2)cn1` [Example 478, (S)-5-(3-((1-(1H-tetrazol-1-yl)propan-2-yl)oxy)-4-chlorophenyl)-N-(5-methyl-2-(4-morpholinopiperidin-1-yl)pyridin-4-yl)pyrimidin-2-amine] the figure was 10 to 100 nM.
The same measure, in the same setting: with `COc1cc(C2CCCN(C3COC3)C2)ccc1Nc1ncc(-c2ccc(Cl)c(O[C@@H](C)Cn3cnnn3)c2)cn1` (stereo partly drawn) [Example 494, 5-(3-(((S)-1-(1H-tetrazol-1-yl)propan-2-yl)oxy)-4-chlorophenyl)-N-(2-methoxy-4-(1-(oxetan-3-yl)piperidin-3-yl)phenyl)pyrimidin-2-amine] the figure was less than 10 nM.

The assay is the same for the next values; noted with them: CaMKIIδ binding assay; activity class per Table 2.
Compound `C[C@H](Cn1cnnn1)Oc1cc(-c2cnc(Nc3cn([C@H]4CC[C@@H](N5CCOCC5)CC4)nc3C(F)(F)F)nc2)ccc1Cl` [Example 896, 5-(3-(((R)-1-(1H-tetrazol-1-yl)propan-2-yl)oxy)-4-chlorophenyl)-N-(1-(cis-4-morpholinocyclohexyl)-3-(trifluoromethyl)-1H-pyrazol-4-yl)pyrimidin-2-amine] came in with a half-maximal inhibitory concentration (IC50) not below 100 nM.

The assay is the same for the next values; noted with them: Table 2; CaMKIIδ binding assay, activity given as class A/B/C.
In turn, `Cc1ccc(-c2cnc(Nc3cn([C@H]4CC[C@H](N5CCOCC5)CC4)nc3C(F)(F)F)nc2)cc1O[C@@H](C)Cn1cnnn1` [Example 810, 5-(3-(((S)-1-(1H-tetrazol-1-yl)propan-2-yl)oxy)-4-methylphenyl)-N-(1-(trans-4-morpholinocyclohexyl)-3-(trifluoromethyl)-1H-pyrazol-4-yl)pyrimidin-2-amine] registered an IC50 of less than 10 nM.
The compound `C[C@@H](Cn1cnnn1)Oc1cc(-c2cnc(Nc3cn(C4CCN(C)CC4)nc3OCC(F)F)nc2)ccc1Cl` [Example 793, (S)-5-(3-((1-(1H-tetrazol-1-yl)propan-2-yl)oxy)-4-chlorophenyl)-N-(3-(2,2-difluoroethoxy)-1-(1-methylpiperidin-4-yl)-1H-pyrazol-4-yl)pyrimidin-2-amine] showed an IC50 of less than 10 nM.
Same read-out and setting: the same measure for `C[C@@H](Cn1cnnn1)Oc1cc(-c2cnc(Nc3cn(C4CCNCC4)nc3OCC(F)F)nc2)ccc1Cl` [Example 791, (S)-5-(3-((1-(1H-tetrazol-1-yl)propan-2-yl)oxy)-4-chlorophenyl)-N-(3-(2,2-difluoroethoxy)-1-(piperidin-4-yl)-1H-pyrazol-4-yl)pyrimidin-2-amine]: less than 10 nM.

The same assay, now with this note: Table 2; activity class for CaMKIIδ.
Turning to `C[C@@H](Cn1cnnn1)Oc1cc(-c2cnc(Nc3cn(CC4CCCCO4)nc3C(F)(F)F)nc2)ccc1Cl` (stereo partly drawn) [Example 712, 5-(3-(((S)-1-(1H-tetrazol-1-yl)propan-2-yl)oxy)-4-chlorophenyl)-N-(1-((tetrahydro-2H-pyran-2-yl)methyl)-3-(trifluoromethyl)-1H-pyrazol-4-yl)pyrimidin-2-amine], the IC50 was in the range of 10 to 100 nM.

The next assay concerns the target T2, Human full-length CaMKIIδ (Homo sapiens, UniProt Q13557).
T2 construct: Human full-length CaMKIIδ (Cat #02-111) was obtained from Carna Biosciences; GST; purchased Carna Biosciences 02-111
As to the kind of experiment: Human CaMKII enzyme inhibition assay (radiometric kinase assay). The assay is classed as biochemical. The settings on record: 3 μM compound; 500 nM ATP; 0.5 nM CaMKIIδ; read-out: CaMKIIδ inhibitory activity (%) at 3 μM. As to the method:
In Vitro CaMKIIδ Inhibitory Activity was Evaluated by an Enzyme Assay.
Human CaMKII Enzyme Inhibition Assay
Kinase assay for CaMKIIs was performed using the radiometric assay. Human full-length CaMKIIδ (Cat #02-111) was obtained from Carna Biosciences (Kobe, Japan).
Enzyme reactions were performed in 25 mM HEPES, pH 7.5, with 5 mM magnesium chloride, 1 mM calcium chloride, 10 μg/mL Calmodulin, 2 mM DTT, 0.01% Tween20 and 500 nM ATP (0.2 μCi/well of [γ-33P] ATP) containing 0.5 nM CaMKIIδ and 0.1 μM autophosphorylation peptide (KKALRRQETVDAL)(Toray Research Center).
After incubating the enzyme, peptide, and compounds for 5 min, kinase reactions were initiated by adding ATP, followed by incubation for 60 min at room temperature in a total volume of 50 μL. The reactions were terminated by the addition of 10% trichloroacetic acid (final concentration). The [γ-33P]-phosphorylated proteins were filtered in a Harvest Plate (Merck Millipore) with a Cell Harvester (PerkinElmer) and then free [γ-33P] ATP was washed out with 3% phosphoric acid. The plates were dried, followed by the addition of 40 μl of MicroScintO (PerkinElmer). The radioactivity was counted by a TopCount scintillation counter (PerkinElmer). The signals of the reaction without enzyme were defined as 100% inhibitory activity and those of the reaction without inhibitors as 0% inhibitory activity. In vitro CaMKIIδ inhibitory activity was evaluated by % inhibitory activity of 3 μM compound concentration.
With `COc1cc(CNC2CC2)ccc1Nc1ncc(-c2ccc(C#N)c(O[C@@H](C)Cn3cncn3)c2)cn1` [Example 33, 4-(2-((4-((cyclopropylami-no)methyl)-2-methoxy-phenyl)amino)pyrimidin-5-yl)-2-(((2S)-1-(1H-1,2,4-triazol-1-yl)propan-2-yl)oxy)benzonitrile dihydrochloride], the inhibition at 3 µM stood at 98%.
Consider `COc1cc(N2CCC(N3C4CCC3COC4)CC2)ccc1Nc1ncc(-c2ccc(Cl)c(O[C@@H](C)Cn3cnnn3)c2)cn1` [Example 210, 5-(4-chloro-3-(((2S)-1-(1H-tetrazol-1-yl)propan-2-yl)oxy)phenyl)-N-(2-methoxy-4-(4-(3-oxa-8-azabicyclo[3.2.1]oct-8-yl)piperidin-1-yl)phenyl)pyrimidin-2-amine], for which the inhibition at 3 µM was determined as 100%.
On the same count and under the same terms, with `COc1cc(N2CCN(C3COC3)CC2)c(F)cc1Nc1ncc(-c2ccc(Cl)c(O[C@@H](C)Cn3cnnn3)c2)cn1` [Example 211, 5-(4-chloro-3-(((2S)-1-(1H-tetrazol-1-yl)propan-2-yl)oxy)phenyl)-N-(5-fluoro-2-methoxy-4-(4-(oxetan-3-yl)piperazin-1-yl)phenyl)pyrimidin-2-amine] the figure was 98%.
Still for that read-out and setting: the same measure for `COCCN1CCC(c2ccc(Nc3ncc(-c4ccc(C#N)c(O[C@@H](C)Cn5cnnn5)c4)cn3)c(OC)c2)CC1` [Example 85, 4-(2-((2-methoxy-4-(1-(2-methoxyethyl)piperidin-4-yl)phenyl)amino)pyrimidin-5-yl)-2-(((2S)-1-(1H-tetrazol-1-yl)propan-2-yl)oxy)benzonitrile]: 98%; for `COc1cc(N2CCC(N3CCOCC3)CC2)c(F)cc1Nc1ncc(-c2ccc(Cl)c(O[C@@H](C)Cn3cnnn3)c2)cn1` [Example 205, 5-(4-chloro-3-(((2S)-1-(1H-tetrazol-1-yl)propan-2-yl)oxy)phenyl)-N-(5-fluoro-2-methoxy-4-(4-(morpholin-4-yl)piperidin-1-yl)phenyl)pyrimidin-2-amine]: 99%; for `COc1cc(C(=O)N2CCOCC2)ccc1Nc1ncc(-c2ccc(C#N)c(O[C@@H](C)Cn3cnnn3)c2)cn1` [Example 82, 4-(2-((2-methoxy-4-(morpholin-4-ylcar-bonyl)phenyl)amino)pyrimidin-5-yl)-2-(((2S)-1-(1H-tetrazol-1-yl)propan-2-yl)oxy)benzonitrile]: 98%.
The same measure, in the same setting: with `COc1cc(CNC2CC2)ccc1Nc1ncc(-c2ccc(C#N)c(O[C@@H](C)Cn3cnnn3)c2)cn1` [Example 52, 4-(2-((4-((cyclopropylami-no)methyl)-2-methoxy-phenyl)amino)pyrimidin-5-yl)-2-(((2S)-1-(1H-tetrazol-1-yl)propan-2-yl)oxy)benzonitrile hydrochloride] the figure was 100%.
Regarding `COc1cc(N2CCC(N3CCOCC3)CC2)ccc1Nc1ncc(-c2ccc(C#N)c(O[C@@H](C)Cn3cncn3)c2)cn1` [Example 1, 4-(2-((2-methoxy-4-(4-(morpholin-4-yl)piperidin-1-yl)phenyl)amino)pyrimidin-5-yl)-2-(((2S)-1-(1H-1,2,4-triazol-1-yl)propan-2-yl)oxy)benzonitrile], the inhibition at 3 µM was determined as 99%.
On the same count and under the same terms, the same measure for `COc1cc(N2CCC(N3CCOCC3)CC2)ncc1Nc1ncc(-c2ccc(C#N)c(O[C@@H](C)Cn3cnnn3)c2)cn1` [Example 57, 4-(2-((4-methoxy-6-(4-(morpholin-4-yl)piperidin-1-yl)pyridin-3-yl)amino)pyrimidin-5-yl)-2-(((2S)-1-(1H-tetrazol-1-yl)propan-2-yl)oxy)benzonitrile]: 99%; for `COc1cc(C2CCNCC2)ccc1Nc1ncc(-c2ccc(C#N)c(O[C@@H](C)Cn3cncn3)c2)cn1` [Example 50, 4-(2-((2-methoxy-4-(piperidin-4-yl)phenyl)amino)pyrimidin-5-yl)-2-(((2S)-1-(1H-1,2,4-triazol-1-yl)propan-2-yl)oxy)benzonitrile]: 99%.
Same read-out and setting: with `COc1ccccc1Nc1ncc(-c2ccc(C#N)c(O[C@@H](C)Cn3cncn3)c2)cn1` [Example 2, 4-(2-((2-methoxy-phenyl)amino)pyrimidin-5-yl)-2-(((2S)-1-(1H-1,2,4-triazol-1-yl)propan-2-yl)oxy)benzonitrile] the figure was 96%.

Source of the values: patent US10543212B2, “Substituted amines for treating cardiac diseases” (Cardurion Pharmaceuticals, LLC, priority 2017, dated 2020).
